Results reported in patent publication US8658668B2, “PI3 kinase/mTOR dual inhibitor” (Eli Lilly and Company, priority 2011, dated 2014).
pIC50: −log10 of the molar value.

Assays:
[1] = tested on: LXFE 1422 human tumor xenograft cells; assay: Oncotest tumor clonogenic assay, LXFE 1422; format: cell-based; settings: colony formation, NSCLC LXFE 1422, squamous cell carcinoma, ud, read-out: Absolute IC50
[2] = tested on: GXF 209 human tumor xenograft cells; assay: Oncotest tumor clonogenic assay, GXF 209; format: cell-based; settings: colony formation, Gastric GXF 209, signet-ring cell carcinoma, ud, read-out: Absolute IC50
[3] = tested on: LXFL 529 human tumor xenograft cells; assay: Oncotest tumor clonogenic assay, LXFL 529; format: cell-based; settings: colony formation, NSCLC LXFL 529, large cell lung carcinoma, pd, read-out: Absolute IC50
[4] = tested on: LXFL 430 human tumor xenograft cells; assay: Oncotest tumor clonogenic assay, LXFL 430; format: cell-based; settings: colony formation, NSCLC LXFL 430, large cell lung carcinoma, pd, read-out: Absolute IC50
[5] = tested on: human renal carcinoma cells 786-O; assay: Xenograft tumor model, 786-O; format: in vivo, mouse; settings: oral gavage
Experimental: (§1) Expand human glioblastoma cells U87MG and human renal carcinoma cells 786-O, in culture, harvest and inject subcutaneously onto the rear flank of athymic nude mice. Expand human non-small cell lung cancer cells NCI-H1975 in culture, harvest and inject subcutaneously onto the rear flank of CD-1 nu/nu mice. Prepare test compound in an appropriate vehicle and administer by oral gavage when tumors are established (7-21 days after implant). Tumor response is determined by tumor volume measurement performed twice a week during the course of treatment. Body weight is taken as a general measurement of toxicity.

AKT1(pS473) = assay: AlphaScreen SureFire p-AKT (Ser473) in U87MG cells; format: cell-based; settings: Homo sapiens, U-87 MG, 1 h, n = 4, read-out: AKT1(pS473) Absolute IC50
Experimental: This homogeneous assay format uses immuno-sandwich capture of the phosphorylated analyte and then detection with antibody-coated Alphascreen beads to generate an amplified signal.
Maintain U87MG cells in U87MG growth medium consisting of DMEM (GIBCO 11965-092) supplemented with 10% fetal bovine serum (FBS, GIBCO, 10091-141), 1% nonessential amino acids (GIBCO, 11140-050) and 1% sodium pyruvate (GIBCO, 11360-070). Harvest cells using standard cell culture procedures and then count using Vi-Cell. Plate 100 μL of U87MG cells in growth medium (50,000 cells/well) into Costar #3596 96 well plates and incubate overnight at 37° C., 5% CO2.
Incubate for one h at 37° C., then remove the medium and add 50 μL of 1× SureFire Lysis Buffer (TGR Biosciences SureFire® Kit component) to each well and incubate at room temperature for 10 min with gentle shaking Transfer 6 μL lysate and 10 μL reaction mixture (60 parts reaction buffer/10 parts activation buffer/1 part each of donor and acceptor beads, Perkin Elmer, 6760617R) to a 384 well proxiplate (Perkin Elmer, 6006280) for the p-p70S6 kinase (Thr389) and p-AKT(Ser473) assays. Seal the plate and incubate at RT for 4 h. […] Read the plates on a Perkin Elmer EnVision equipped with a TurboModule using standard AlphaScreen® settings (Ex680 nm and Em520-620 nm). […]

[6] = tested on: LXFL 1072 human tumor xenograft cells; assay: Oncotest tumor clonogenic assay, LXFL 1072; format: cell-based; settings: colony formation, NSCLC LXFL 1072, large cell lung carcinoma, pd, read-out: Absolute IC50
[7] = tested on: human non-small cell lung cancer cells NCI-H1975; assay: Xenograft tumor model, NCI-H1975; format: in vivo, mouse; settings: oral gavage
Experimental: as §1

[8] = tested on: LXFA 629 human tumor xenograft cells; assay: Oncotest tumor clonogenic assay, LXFA 629; format: cell-based; settings: colony formation, NSCLC LXFA 629, adeno carcinoma, pd, read-out: Absolute IC50
[9] = tested on: CXF 1729 human tumor xenograft cells; assay: Oncotest tumor clonogenic assay, CXF 1729; format: cell-based; settings: colony formation, Colon CXF 1729, adeno carcinoma, wd, read-out: Absolute IC50
[10] = tested on: LXFA 983 human tumor xenograft cells; assay: Oncotest tumor clonogenic assay, LXFA 983; format: cell-based; settings: colony formation, NSCLC LXFA 983, adeno carcinoma, pd, read-out: Absolute IC50
[11] = tested on: RXF 1220 human tumor xenograft cells; assay: Oncotest tumor clonogenic assay, RXF 1220; format: cell-based; settings: colony formation, Renal RXF 1220, hypernephroma, pd, read-out: Absolute IC50
[12] = tested on: RXF 393 human tumor xenograft cells; assay: Oncotest tumor clonogenic assay, RXF 393; format: cell-based; settings: colony formation, Renal RXF 393, hypernephroid carcinoma, pd, read-out: Absolute IC50
[13] = tested on: MAXF 1322 human tumor xenograft cells; assay: Oncotest tumor clonogenic assay, MAXF 1322; format: cell-based; settings: colony formation, Mammary MAXF 1322, pap. adeno carcinoma, pd, read-out: Absolute IC50
[14] = tested on: RXF 486 human tumor xenograft cells; assay: Oncotest tumor clonogenic assay, RXF 486; format: cell-based; settings: colony formation, Renal RXF 486, hypernephroid adeno carcinoma, clear cell, read-out: Absolute IC50
[15] = tested on: CXF 1103 human tumor xenograft cells; assay: Oncotest tumor clonogenic assay, CXF 1103; format: cell-based; settings: CXF1103, colony formation, Colon CXF 1103, adeno carcinoma, pd, read-out: Absolute IC50

- pIC50 [1]: 6.64
- pIC50 [2]: 6.74
- pIC50 [3]: 6.89
- pIC50 [4]: 7.25
- pIC50 (AKT1(pS473)): 7.03
- pIC50 [6]: 6.67
- pIC50 [8]: 7.59
- pIC50 [9]: 6.75
- pIC50 [10]: 6.99
- pIC50 [11]: 6.72
- pIC50 [12]: 7.36
- pIC50 [13]: 8.52
- pIC50 [14]: 6.95
- pIC50 [15]: < 6.70
SMILES: CO[C@@H](C)Cn1c(=O)n(C)c2cnc3ccc(-c4cncc(C(C)(C)O)c4)cc3c21 [Example 1, 8-[5-(1-Hydroxy-1-methylethyl)pyridin-3-yl]-1-[(2S)-2-methoxypropyl]-3-methyl-1,3-dihydro-2H-imidazo[4,5-c]quinolin-2-one]
- % TGI ([5]; 3 mg/kg BID): 33.9%
- % TGI ([5]; 6 mg/kg BID): 56.9%
- % TGI ([5]; 10 mg/kg BID): 70.2%
- % TGI ([7]; H1975, 3 mg/kg BID): 13.8%
- % TGI ([7]; H1975, 6 mg/kg BID): 26.9%
- % TGI ([7]; H1975, 10 mg/kg BID): 62.7%
